Common to all, as to assay: inhibition of tumour cell growth, NCI panel, 48 h
Assay [1] deals with A549 NSCLC.
The subject of assay [2] is HL-60(TB) leukemia.
The test system of assay [3] is NCI/ADR-RES ovarian.
In assay [4] the test system is SF-295 CNS.
For assay [5], the system named is MOLT-4 leukemia.
For assay [6], the system named is ACHN renal.
Assay [7] concerns SN12C renal.
Assay [8] concerns SF-268 CNS.
Assay [9] relates to TK-10 renal.
In assay [10] the test system is OVCAR-8 ovarian.
Assay [11] relates to MALME-3M melanoma.

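Where inhibition never reached the appropriate level, the endpoint shown equals the highest concentration tested. Otherwise, values were interpolated linearly from a five-concentration, 48-hour dose response in 96-well plates. TGI denotes the concentration required for complete inhibition of growth.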

Regarding `Cc1nc(OCc2ccccc2)c2ncn(CCO)c2n1`, the TGI in [1], in assay [2], in assay [3], in assay [4], in [5] and in assay [6] was over 100 µM in each case. The TGI in [7], in [8] and in assay [9] was over 100 µM each time.
With `Cc1nc2c(c(N3CCN(C)CC3)n1)Cc1ccccc1-2`, the TGI in assay [10], in assay [1], in [2], in assay [3], in assay [4] and in assay [11] was over 100 µM in each case. In addition, the figures for the TGI in assay [6], in [8] and in [9] were over 100 µM, over 100 µM and 88.1 µM, respectively.
Take `COc1c2c(c3c(c1OC)c(=O)c1ccccc1n3C)OCO2`: the TGI in [10], in [1], in [2], in assay [3], in [4] and in assay [5] was over 100 µM throughout. For the same molecule, the TGI in [6], in assay [7], in assay [8] and in assay [9] was over 100 µM each time.
For the molecule `CCOC(=O)C12CCC(=O)N1N(C)c1ncccc1N2` (stereo unspecified), the TGI in assay [10], in assay [1], in assay [3], in [4], in assay [5] and in assay [6] was over 100 µM in each case. Moreover, the TGI in assay [8] and in assay [9] was over 100 µM each time.
As for `COc1ccc(N2C(=O)C3CC(c4ccc(Br)cc4)c4c([nH]c5ccccc45)C3C2=O)cc1` (stereo unspecified), the TGI in assay [10] was 5.96 µM; in [1], 6.96 µM; in [2] it was over 100 µM; in assay [4] it was 24.3 µM; in assay [11], 36.7 µM; in assay [5] it was 29 µM. In addition, the TGI was 15.4 µM in [6], 15.2 µM in assay [7], 23.4 µM in assay [8] and 20 µM in assay [9].
On to `C(=N\c1nc2cc3sc(/N=C/c4ccccc4)nc3cc2s1)/c1ccccc1`, for which the TGI in assay [10] is over 100 µM; in assay [1], over 100 µM; in assay [3], over 100 µM; in assay [4], over 100 µM; in assay [11], over 100 µM; in [5] it was over 80.9 µM. Further, the TGI in assay [6], in [7], in assay [8] and in [9] was over 100 µM each time.
On to `COC(=O)C(Cc1c[nH]c2ccccc12)NC(=O)C(Cc1cnc[nH]1)NC(=O)C1CCC(=O)N1C(=O)OCc1ccccc1` (stereo unspecified), for which the TGI in assay [10], in assay [1], in [2], in assay [11], in assay [5] and in assay [6] was over 100 µM each time. This molecule gave a TGI in assay [9] of over 100 µM.
Consider `O=[N+]([O-])c1ncc(N(CCO)CCO)s1`, for which the TGI was over 100 µM in [10]; 40.7 µM in assay [2]; over 100 µM in [4]; 36.3 µM in assay [11]; over 100 µM in assay [5]; over 100 µM in assay [6]. The TGI in [7] is over 100 µM; in assay [8], over 100 µM; in assay [9] it was 79.5 µM.
Turning to `O=P1(c2ccccc2)C(c2ccccc2)CCC1c1ccccc1` (stereo unspecified), the TGI is over 100 µM in [10]; over 100 µM in assay [1]; 43.4 µM in assay [2]; over 100 µM in assay [4]; over 100 µM in [5]; over 100 µM in [7]. For the same molecule, the TGI in [8] and in assay [9] was over 100 µM throughout.
Consider `O=S(=O)(O)c1ccc(N=Nc2ccccc2)cc1`, for which the TGI in [10], in assay [1], in assay [2], in assay [3], in [4] and in assay [5] was over 100 µM throughout. Further, the TGI in assay [6], in [7], in assay [8] and in assay [9] was over 100 µM throughout.
Take `Fc1cc(C2=Nn3c(COc4ccccc4Cl)nnc3S/C2=C\c2ccc(Cl)cc2)c(Cl)cc1Cl`: the TGI in [10] was over 100 µM; in assay [2] it was 68.4 µM; in assay [3], 30.1 µM; in [4], over 100 µM; in assay [5] it was over 100 µM; in assay [6], 39.1 µM. Further, the TGI in assay [8] is 9.06 µM; in assay [9], over 100 µM.
As for `NCC(=O)Nc1ccccc1`, the TGI in [10], in assay [1], in assay [3], in [4], in [11] and in assay [5] was over 100 µM throughout. The TGI in assay [6], in assay [7], in [8] and in [9] was over 100 µM in each case.
Consider `CN1CCC2(CC1)SSC1(CCN(C)CC1)S2`, for which the TGI in [10], in assay [1], in assay [2], in [3], in [4] and in assay [5] was over 100 µM throughout. The TGI in [6] and in [7] was over 100 µM each time.
For the molecule `O=C1c2ccccc2N(O)C1(c1ccccc1)C1CCCC=C1N1CCOCC1` (stereo unspecified), the TGI in assay [10], in assay [1], in assay [2], in assay [4], in assay [5] and in [6] was over 100 µM each time. The TGI in assay [7], in [8] and in [9] was over 100 µM in each case.
With `CC1CCN(C(C)C)P(=S)(Cc2ccccc2)O1` (stereo unspecified), the TGI in [10], in assay [1], in [3], in assay [4], in [11] and in assay [5] was over 100 µM in each case. Besides, the TGI in assay [6], in assay [8] and in [9] was over 100 µM in each case.
For the molecule `CC1OC(OC2C(O)COC(OC3C(C)OC(OC4C(OC(=O)[C@]56CCC(C)(C)C[C@@H]5C5=CCC7[C@@]8(C)C[C@H](O)[C@H](OC9OC(CO)C(O)C(O)C9O)[C@@](C)(CO)[C@@H]8CC[C@@]7(C)[C@]5(C)CC6)OCC(O)C4O)C(O)C3O)C2O)C(O)C(O)C1O` (stereo partly specified), the TGI was determined as 43.4 µM in assay [10]; 43.6 µM in [1]; 44.9 µM in assay [3]; 48 µM in [4]; 64.3 µM in assay [11]; 48.7 µM in [5]. Also, the TGI in assay [6] was found to be 44.3 µM; in assay [7], 44.4 µM; in assay [8], 49.4 µM; in [9], 35.3 µM.
Turning to `O=[N+]([O-])c1ccc(-c2csc(N=Nc3c(O)[nH]c4ccccc34)n2)cc1`, the TGI in assay [10] is 70 µM; in [1], 81.3 µM; in assay [3], over 100 µM; in assay [4], over 100 µM; in assay [5] it was over 100 µM; in assay [6], over 100 µM. The results for the TGI in assay [7] and in assay [9] were 96.5 µM and 35.6 µM, respectively.
For `COC1OC2COC1(OCc1ccccc1)C1OC(C)(C)OC21` (stereo unspecified), the TGI in [10], in assay [1], in assay [3], in [4], in assay [11] and in assay [5] was over 100 µM throughout. Also, the TGI in [6], in assay [7], in assay [8] and in assay [9] was over 100 µM in each case.
With `O=c1onc2n1-c1ccc(Cl)cc1C(=S)N1CSCC21` (stereo unspecified), the TGI was 39.8 µM in assay [10]; over 100 µM in [1]; 36.4 µM in assay [3]; 41.9 µM in [4]; over 100 µM in assay [11]; over 100 µM in assay [5]. The TGI was over 100 µM in [6], 88.2 µM in assay [7], 69.7 µM in assay [8] and over 100 µM in [9].
Take `COC(=O)c1ccc(NCc2cc(OC)ccc2OC)cc1`: the TGI in [10], in assay [1], in assay [2], in assay [3], in assay [11] and in [5] was over 100 µM in each case. The TGI in assay [6], in [8] and in assay [9] was over 100 µM each time.
With `CN(O)C(=O)CCC(NC(=O)CCC(N)C(=O)O)C(=O)NCC(=O)O` (stereo unspecified), the TGI in [10], in [1], in assay [2], in assay [3], in assay [4] and in assay [5] was over 100 µM throughout. In addition, the TGI in assay [6], in assay [7], in [8] and in assay [9] was over 100 µM in each case.
On to `C=C1C(C(=O)OC)[C@H]1C(=O)OC` (stereo partly specified), for which the TGI in assay [10], in assay [1], in assay [2], in [3], in assay [4] and in assay [5] was over 100 µM throughout. Also, the TGI in assay [6], in assay [7], in assay [8] and in [9] was over 100 µM in each case.
For the molecule `O=S1(=O)c2ccccc2N(O)C2=NCCN21`, the TGI in assay [10], in assay [1], in [2], in [4], in [11] and in [5] was over 100 µM each time. The TGI in assay [6], in assay [7], in assay [8] and in assay [9] was over 100 µM in each case.
As for `Cc1ccc2c(c1)nc1n2C(c2c(F)cccc2F)SC1` (stereo unspecified), the TGI in assay [10] was over 100 µM; in assay [1] it was over 100 µM; in assay [3], over 100 µM; in [4] it was over 100 µM; in assay [11], 93.3 µM; in assay [5], 87.4 µM. Moreover, the TGI in assay [6], in assay [7], in assay [8] and in assay [9] was over 100 µM throughout.
For `COC(=O)C(CNC(=O)/C=C/c1ccc(OC)c(OC)c1)NC(=O)/C=C/c1ccc(OC)c(OC)c1` (stereo unspecified), the TGI in assay [10], in assay [1], in [3], in assay [4], in assay [11] and in [5] was over 100 µM throughout. The TGI in assay [6], in assay [7], in [8] and in [9] was over 100 µM each time.
In the case of `COc1ccc(C2SCC(=O)N2c2ccc(-n3c(-c4ccccc4)nc4ccccc4c3=O)cc2)cc1` (stereo unspecified), the TGI in assay [10], in assay [1], in assay [2], in assay [3], in [4] and in assay [5] was over 100 µM throughout. In addition, the TGI in assay [6], in assay [7], in [8] and in assay [9] was over 100 µM in each case.
On to `Cc1cc(N(CCC#N)CCC#N)ccc1/C(N=Nc1ccc([N+](=O)[O-])cc1)=N\NC(=O)c1cc(Cl)ccc1O`, for which the TGI in assay [10] was 63 µM; in assay [1], over 100 µM; in assay [3], over 100 µM; in [4], over 100 µM; in [11] it was over 100 µM; in [5], 72.3 µM. Further, the TGI in assay [6] is over 100 µM; in [7], over 100 µM; in [8], 91.3 µM; in assay [9], over 100 µM.
On to `Nc1ncnc2c1ncn2[C@H]1C=C[C@@H](NO)C1`, for which the TGI in assay [10], in [1], in assay [3], in [4], in assay [11] and in [5] was over 100 µM each time. The TGI in assay [6], in assay [7], in assay [8] and in [9] was over 100 µM each time.
